Measured values published in PubChem BioAssay AID248 (DTP/NCI, 2004).
Values joined by “and” are separate entries in the source; they are usually repeats but may differ in a detail not shown here. Equal values may be shown once. Inconclusive results and toxic doses are left out. No stated cut-off is given here; in the data, active means T/C of 150% or more; inactive means T/C below 125%.

Tested on: L1210 leukemia ip in BDF1 mice, survival T/C
Assay: NCI In Vivo Anticancer Drug Screen. Data for tumor model L1210 Leukemia (intraperitoneal) in B6D2F1 (BDF1) mice
Conditions: endpoint: mean survival time, higher = longer survival
In short: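 Tumor was transplanted into mice, which were then dosed with test compound or vehicle alone. Survival was recorded for each group, and the treated figure was expressed relative to the control figure.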

[1] = dose: 50.0 mg/kg/injection, schedule: Q04DX003 (ip), vehicle: saline
[2] = dose: 100.0 mg/kg/injection, schedule: Q04DX003 (ip), vehicle: saline
[3] = dose: 100.0 mg/kg/injection, schedule: Q01DX001 (ip), vehicle: saline with Tween-80
[4] = dose: 200.0 mg/kg/injection, schedule: Q01DX001 (ip), vehicle: saline with Tween-80
[5] = dose: 100.0 mg/kg/injection, schedule: Q01DX001 (ip), vehicle: saline
[6] = dose: 200.0 mg/kg/injection, schedule: Q01DX001 (ip), vehicle: saline
[7] = dose: 100.0 mg/kg/injection, schedule: Q01DX001 (ip), vehicle: carboxymethylcellulose (CMC)
[8] = dose: 200.0 mg/kg/injection, schedule: Q01DX001 (ip), vehicle: carboxymethylcellulose (CMC)
[9] = dose: 400.0 mg/kg/injection, schedule: Q01DX001 (ip), vehicle: carboxymethylcellulose (CMC)
[10] = dose: 25.0 mg/kg/injection, schedule: Q01DX009 (ip), vehicle: Klucel (hydroxypropylcellulose) (HPC)
[11] = dose: 50.0 mg/kg/injection, schedule: Q01DX009 (ip), vehicle: Klucel (hydroxypropylcellulose) (HPC)
[12] = dose: 100.0 mg/kg/injection, schedule: Q01DX009 (ip), vehicle: Klucel (hydroxypropylcellulose) (HPC)
[13] = dose: 100.0 mg/kg/injection, schedule: Q04DX003 (ip), vehicle: Klucel (hydroxypropylcellulose) (HPC)
[14] = dose: 200.0 mg/kg/injection, schedule: Q01DX009 (ip), vehicle: Klucel (hydroxypropylcellulose) (HPC)
[15] = dose: 200.0 mg/kg/injection, schedule: Q04DX003 (ip), vehicle: Klucel (hydroxypropylcellulose) (HPC)
[16] = dose: 400.0 mg/kg/injection, schedule: Q04DX003 (ip), vehicle: Klucel (hydroxypropylcellulose) (HPC)
[17] = dose: 100.0 mg/kg/injection, schedule: Q04DX003 (ip), vehicle: acetone
[18] = dose: 200.0 mg/kg/injection, schedule: Q04DX003 (ip), vehicle: acetone
[19] = dose: 100.0 mg/kg/injection, schedule: Q04DX002 (ip), vehicle: saline with Tween-80
[20] = dose: 200.0 mg/kg/injection, schedule: Q04DX002 (ip), vehicle: saline with Tween-80
[21] = dose: 400.0 mg/kg/injection, schedule: Q04DX002 (ip), vehicle: saline with Tween-80
[22] = dose: 200.0 mg/kg/injection, schedule: Q04DX003 (ip), vehicle: saline
[23] = dose: 400.0 mg/kg/injection, schedule: Q04DX003 (ip), vehicle: saline
[24] = dose: 5.0 mg/kg/injection, schedule: Q01DX001 (ip), vehicle: saline
[25] = dose: 10.0 mg/kg/injection, schedule: Q01DX001 (ip), vehicle: saline
[26] = dose: 20.0 mg/kg/injection, schedule: Q01DX001 (ip), vehicle: saline
[27] = dose: 40.0 mg/kg/injection, schedule: Q01DX001 (ip), vehicle: saline

Measured: T/C

CC1C[N-]CC(C)C1.CC1C[N-]CC(C)C1.[Cl][Pt+2]([Cl])([Cl])[Cl] (centres undefined)
inactive: dose: 12.5 mg/kg/injection, schedule: Q01DX009 (ip), vehicle: saline 107 % of control | dose: 12.5 mg/kg/injection, schedule: Q04DX003 (ip), vehicle: saline 87 % of control | dose: 25.0 mg/kg/injection, schedule: Q01DX009 (ip), vehicle: saline 102 % of control | dose: 25.0 mg/kg/injection, schedule: Q04DX003 (ip), vehicle: saline 87 % of control | [1] 95 % of control and 106 % of control | [2] 91 % of control

Cc1ccc([N+](=O)[O-])c2ccccc12
inactive: [3] 103 % of control | [4] 97 % of control | dose: 400.0 mg/kg/injection, schedule: Q01DX001 (ip), vehicle: saline with Tween-80 97 % of control

CCCC(C)CC(=O)O (centres undefined)
inactive: [5] 102 % of control | [6] 102 % of control | dose: 400.0 mg/kg/injection, schedule: Q01DX001 (ip), vehicle: saline 98 % of control

C=CCN(c1ccccc1)P(=O)(N1CC1)N1CC1
inactive: [7] 96 % of control | [8] 96 % of control | [9] 96 % of control

CCNC(C)(C)C(Cl)c1ccc(Cl)s1 (centres undefined)
inactive: [10] 90 % of control | dose: 25.0 mg/kg/injection, schedule: Q04DX003 (ip), vehicle: Klucel (hydroxypropylcellulose) (HPC) 101 % of control | [11] 89 % of control | dose: 50.0 mg/kg/injection, schedule: Q04DX003 (ip), vehicle: Klucel (hydroxypropylcellulose) (HPC) 97 % of control | [12] 90 % of control | [13] 101 % of control and 102 % of control

CCOC(=O)CC(=O)c1ccc(OCCOc2ccc(C(C)(C)CC(C)(C)C)cc2)cc1
inactive: [12] 95 % of control | [13] 89 % of control | [14] 97 % of control | [15] 96 % of control | dose: 400.0 mg/kg/injection, schedule: Q01DX009 (ip), vehicle: Klucel (hydroxypropylcellulose) (HPC) 87 % of control | [16] 86 % of control

C#CCCCCCC#CCCCCCC#CCCCCCC#C
inactive: [17] 94 % of control | [18] 95 % of control

O=[N+]([O-])c1ccc2c(c1)OCO2
inactive: dose: 100.0 mg/kg/injection, schedule: Q04DX002 (ip), vehicle: Klucel (hydroxypropylcellulose) (HPC) 103 % of control | dose: 200.0 mg/kg/injection, schedule: Q04DX002 (ip), vehicle: Klucel (hydroxypropylcellulose) (HPC) 88 % of control | dose: 400.0 mg/kg/injection, schedule: Q04DX002 (ip), vehicle: Klucel (hydroxypropylcellulose) (HPC) 94 % of control

CCc1cccc(CC)c1NC(=O)/C=C/C(=O)O
inactive: [19] 93 % of control | [20] 100 % of control | [21] 96 % of control

Cc1ccc(S(=O)(=O)N(C)c2ccc3cc(Br)ccc3c2)cc1
inactive: dose: 100.0 mg/kg/injection, schedule: Q01DX005 (ip), vehicle: Klucel (hydroxypropylcellulose) (HPC) 94 % of control | [13] 95 % of control | dose: 200.0 mg/kg/injection, schedule: Q01DX005 (ip), vehicle: Klucel (hydroxypropylcellulose) (HPC) 100 % of control | [15] 97 % of control | dose: 400.0 mg/kg/injection, schedule: Q01DX005 (ip), vehicle: Klucel (hydroxypropylcellulose) (HPC) 91 % of control | [16] 97 % of control

COC1OC(CN(CCCl)C(C)=O)C2OC(C)(C)OC12 (centres undefined)
inactive: [1] 96 % of control | [2] 94 % of control | [22] 92 % of control | [23] 100 % of control

COC(=O)c1ccc(N)cc1O
inactive: [10] 101 % of control | [11] 106 % of control | [12] 99 % of control and 101 % of control | [13] 98 % of control | [14] 105 % of control | [15] 102 % of control | [16] 93 % of control

O=C(O)CCCc1ccc2sc3ccccc3c2c1
inactive: [3] 100 % of control | [4] 101 % of control

CCOP(=O)(SCC)N(CC)CC (centres undefined)
inactive: [24] 108 % of control | [25] 104 % of control | [26] 104 % of control | [27] 115 % of control | dose: 80.0 mg/kg/injection, schedule: Q01DX001 (ip), vehicle: saline 106 % of control

CCOC(=O)CCN1CCCCC1
inactive: dose: 100.0 mg/kg/injection, schedule: Q01DX009 (ip), vehicle: saline 101 % of control | [2] 93 % of control | dose: 200.0 mg/kg/injection, schedule: Q01DX009 (ip), vehicle: saline 98 % of control | [22] 97 % of control | dose: 400.0 mg/kg/injection, schedule: Q01DX009 (ip), vehicle: saline 104 % of control | [23] 103 % of control

N#CC1(NC(=O)CCl)CCCCC1
inactive: dose: 100.0 mg/kg/injection, schedule: Q01DX001 (ip), vehicle: other 96 % of control | dose: 200.0 mg/kg/injection, schedule: Q01DX001 (ip), vehicle: other 91 % of control

CCCCC#CC(=O)OCC
inactive: dose: 100.0 mg/kg/injection, schedule: Q04DX002 (ip), vehicle: saline 97 % of control | dose: 200.0 mg/kg/injection, schedule: Q04DX002 (ip), vehicle: saline 97 % of control | dose: 400.0 mg/kg/injection, schedule: Q04DX002 (ip), vehicle: saline 112 % of control

CSc1cc2c(cc1N)Cc1ccccc1-2
inactive: [7] 98 % of control | [8] 104 % of control | [9] 115 % of control

CCOCCN=Cc1ccccc1O.CCOCCN=Cc1ccccc1O.[Co]
inactive: dose: 50.0 mg/kg/injection, schedule: Q01DX001 (ip), vehicle: saline 100 % of control | [5] 98 % of control | [6] 96 % of control

CCNC(=O)NC(C(=O)OCC)C(=O)OCC
inactive: dose: 100.0 mg/kg/injection, schedule: Q01DX001 (ip), vehicle: Klucel (hydroxypropylcellulose) (HPC) 107 % of control | dose: 200.0 mg/kg/injection, schedule: Q01DX001 (ip), vehicle: Klucel (hydroxypropylcellulose) (HPC) 98 % of control | dose: 400.0 mg/kg/injection, schedule: Q01DX001 (ip), vehicle: Klucel (hydroxypropylcellulose) (HPC) 90 % of control

O=C(NNC(=O)C1C2CCCCC21)C1C2CCCCC21 (centres undefined)
inactive: [17] 105 % of control | [18] 91 % of control | dose: 400.0 mg/kg/injection, schedule: Q04DX003 (ip), vehicle: acetone 97 % of control

CC1(C)N=C(N)N=C(N)N1c1cccc(OCc2cccc(NC(=O)CBr)c2)c1
inactive: [24] 106 % of control | [25] 103 % of control | [26] 103 % of control | [27] 97 % of control

O=C(O)CNCCN1CC(=O)NC1=S
inactive: [19] 107 % of control | [20] 92 % of control | [21] 90 % of control
